From the supplement of paper PMC10307832

What was measured:
Experiment in all cases: relative viability (nuclei count vs DMSO), 5 days (fraction); higher = more cells survive
Selumetinib + Tozasertib = compound: Cn1cnc2c(F)c(Nc3ccc(Br)cc3Cl)c(C(=O)NOCCO)cc21 [Selumetinib] + Cc1cc(Nc2cc(N3CCN(C)CC3)nc(Sc3ccc(NC(=O)C4CC4)cc3)n2)n[nH]1 [Tozasertib] (partner 0.1 µM)
How it was run: (§1)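 Relative viability is defined as nuclei in treated wells over nuclei in vehicle wells. Duplicate plates were run and medians reported. Lung cancer cell lines in 1536-well plates were dosed by pin tool one day after seeding, with one drug or with a fixed anchor-drug dose plus five library-drug doses (not always all listed) in √10 steps, and nuclei were counted after 5 days.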

Selumetinib + Olaparib = compound: Cn1cnc2c(F)c(Nc3ccc(Br)cc3Cl)c(C(=O)NOCCO)cc21 [Selumetinib] + O=C(c1cc(Cc2n[nH]c(=O)c3ccccc23)ccc1F)N1CCN(C(=O)C2CC2)CC1 [Olaparib] (partner 8 µM)
How it was run: as §1

Venetoclax + Pictilisib = compound: CC1(C)CCC(CN2CCN(c3ccc(C(=O)NS(=O)(=O)c4ccc(NCC5CCOCC5)c([N+](=O)[O-])c4)c(Oc4cnc5[nH]ccc5c4)c3)CC2)=C(c2ccc(Cl)cc2)C1 [Venetoclax] + CS(=O)(=O)N1CCN(Cc2cc3nc(-c4cccc5[nH]ncc45)nc(N4CCOCC4)c3s2)CC1 [Pictilisib] (partner 1 µM)
How it was run: as §1

Venetoclax + Foretinib = compound: CC1(C)CCC(CN2CCN(c3ccc(C(=O)NS(=O)(=O)c4ccc(NCC5CCOCC5)c([N+](=O)[O-])c4)c(Oc4cnc5[nH]ccc5c4)c3)CC2)=C(c2ccc(Cl)cc2)C1 [Venetoclax] + COc1cc2c(Oc3ccc(NC(=O)C4(C(=O)Nc5ccc(F)cc5)CC4)cc3F)ccnc2cc1OCCCN1CCOCC1 [Foretinib] (partner 0.25 µM)
How it was run: as §1

## NCI-H23
Selumetinib + Tozasertib; first compound 0.02 µM
  relative viability: 0.36
Selumetinib + Tozasertib; first compound 0.06325 µM
  relative viability: 0.301
Selumetinib + Tozasertib; first compound 0.2 µM
  relative viability: 0.224
Selumetinib + Tozasertib; first compound 0.6325 µM
  relative viability: 0.31
Selumetinib + Olaparib; first compound 0.02 µM
  relative viability: 0.283
Selumetinib + Olaparib; first compound 0.06325 µM
  relative viability: 0.312
Selumetinib + Olaparib; first compound 0.2 µM
  relative viability: 0.267
Selumetinib + Olaparib; first compound 0.6325 µM
  relative viability: 0.293
Venetoclax + Pictilisib; first compound 0.01 µM
  relative viability: 0.595
Venetoclax + Pictilisib; first compound 0.03162 µM
  relative viability: 0.501
Venetoclax + Pictilisib; first compound 0.1 µM
  relative viability: 0.381
Venetoclax + Pictilisib; first compound 0.3162 µM
  relative viability: 0.479
Venetoclax + Pictilisib; first compound 1 µM
  relative viability: 0.508
Venetoclax + Foretinib; first compound 0.01 µM
  relative viability: 0.949
Venetoclax + Foretinib; first compound 0.03162 µM
  relative viability: 0.945
Venetoclax + Foretinib; first compound 0.1 µM
  relative viability: 1.01
Venetoclax + Foretinib; first compound 0.3162 µM
  relative viability: 1.07
Venetoclax + Foretinib; first compound 1 µM
  relative viability: 0.993

## NCI-H441
Selumetinib + Tozasertib; first compound 0.02 µM
  relative viability: 0.587
Selumetinib + Tozasertib; first compound 0.06325 µM
  relative viability: 0.656
Selumetinib + Tozasertib; first compound 0.2 µM
  relative viability: 0.636
Selumetinib + Tozasertib; first compound 0.6325 µM
  relative viability: 0.583
Selumetinib + Olaparib; first compound 0.02 µM
  relative viability: 0.613
Selumetinib + Olaparib; first compound 0.06325 µM
  relative viability: 0.609
Selumetinib + Olaparib; first compound 0.2 µM
  relative viability: 0.517
Selumetinib + Olaparib; first compound 0.6325 µM
  relative viability: 0.444
Venetoclax + Pictilisib; first compound 0.01 µM
  relative viability: 0.611
Venetoclax + Pictilisib; first compound 0.03162 µM
  relative viability: 0.479
Venetoclax + Pictilisib; first compound 0.1 µM
  relative viability: 0.431
Venetoclax + Pictilisib; first compound 0.3162 µM
  relative viability: 0.46
Venetoclax + Pictilisib; first compound 1 µM
  relative viability: 0.444
Venetoclax + Foretinib; first compound 0.01 µM
  relative viability: 0.903
Venetoclax + Foretinib; first compound 0.03162 µM
  relative viability: 0.962
Venetoclax + Foretinib; first compound 0.1 µM
  relative viability: 0.966
Venetoclax + Foretinib; first compound 0.3162 µM
  relative viability: 0.97
Venetoclax + Foretinib; first compound 1 µM
  relative viability: 0.686

## NCI-H2009
Selumetinib + Tozasertib; first compound 0.02 µM
  relative viability: 0.606
Selumetinib + Tozasertib; first compound 0.06325 µM
  relative viability: 0.502
Selumetinib + Tozasertib; first compound 0.2 µM
  relative viability: 0.499
Selumetinib + Tozasertib; first compound 0.6325 µM
  relative viability: 0.384
Selumetinib + Olaparib; first compound 0.02 µM
  relative viability: 0.775
Selumetinib + Olaparib; first compound 0.06325 µM
  relative viability: 0.6
Selumetinib + Olaparib; first compound 0.2 µM
  relative viability: 0.608
Selumetinib + Olaparib; first compound 0.6325 µM
  relative viability: 0.316
Venetoclax + Pictilisib; first compound 0.01 µM
  relative viability: 0.814
Venetoclax + Pictilisib; first compound 0.03162 µM
  relative viability: 0.955
Venetoclax + Pictilisib; first compound 0.1 µM
  relative viability: 0.778
Venetoclax + Pictilisib; first compound 0.3162 µM
  relative viability: 0.838
Venetoclax + Pictilisib; first compound 1 µM
  relative viability: 0.774
Venetoclax + Foretinib; first compound 0.01 µM
  relative viability: 1.22
Venetoclax + Foretinib; first compound 0.03162 µM
  relative viability: 1.25
Venetoclax + Foretinib; first compound 0.1 µM
  relative viability: 1.1
Venetoclax + Foretinib; first compound 0.3162 µM
  relative viability: 1.19
Venetoclax + Foretinib; first compound 1 µM
  relative viability: 1.13

## NCI-H1944
Selumetinib + Tozasertib; first compound 0.02 µM
  relative viability: 0.238
Selumetinib + Tozasertib; first compound 0.06325 µM
  relative viability: 0.228
Selumetinib + Tozasertib; first compound 0.2 µM
  relative viability: 0.233
Selumetinib + Tozasertib; first compound 0.6325 µM
  relative viability: 0.203
Selumetinib + Olaparib; first compound 0.02 µM
  relative viability: 0.394
Selumetinib + Olaparib; first compound 0.06325 µM
  relative viability: 0.386
Selumetinib + Olaparib; first compound 0.2 µM
  relative viability: 0.359
Selumetinib + Olaparib; first compound 0.6325 µM
  relative viability: 0.318
Venetoclax + Pictilisib; first compound 0.01 µM
  relative viability: 0.369
Venetoclax + Pictilisib; first compound 0.03162 µM
  relative viability: 0.37
Venetoclax + Pictilisib; first compound 0.1 µM
  relative viability: 0.355
Venetoclax + Pictilisib; first compound 0.3162 µM
  relative viability: 0.383
Venetoclax + Pictilisib; first compound 1 µM
  relative viability: 0.36
Venetoclax + Foretinib; first compound 0.01 µM
  relative viability: 1.06
Venetoclax + Foretinib; first compound 0.03162 µM
  relative viability: 0.904
Venetoclax + Foretinib; first compound 0.1 µM
  relative viability: 0.847
Venetoclax + Foretinib; first compound 0.3162 µM
  relative viability: 0.911
Venetoclax + Foretinib; first compound 1 µM
  relative viability: 0.912

## NCI-H1299
Selumetinib + Olaparib; first compound 0.02 µM
  relative viability: 1.08
Selumetinib + Olaparib; first compound 0.06325 µM
  relative viability: 1.08
Selumetinib + Olaparib; first compound 0.2 µM
  relative viability: 1.11
Selumetinib + Olaparib; first compound 0.6325 µM
  relative viability: 0.932
Venetoclax + Pictilisib; first compound 0.01 µM
  relative viability: 0.869
Venetoclax + Pictilisib; first compound 0.03162 µM
  relative viability: 0.874
Venetoclax + Pictilisib; first compound 0.1 µM
  relative viability: 0.637
Venetoclax + Pictilisib; first compound 0.3162 µM
  relative viability: 0.769
Venetoclax + Pictilisib; first compound 1 µM
  relative viability: 0.67
Venetoclax + Foretinib; first compound 0.01 µM
  relative viability: 1.07
Venetoclax + Foretinib; first compound 0.03162 µM
  relative viability: 1.11
Venetoclax + Foretinib; first compound 0.1 µM
  relative viability: 1.1
Venetoclax + Foretinib; first compound 0.3162 µM
  relative viability: 1.07
Venetoclax + Foretinib; first compound 1 µM
  relative viability: 1.03

## EPLC-272H
Selumetinib + Tozasertib; first compound 0.02 µM
  relative viability: 0.185
Selumetinib + Tozasertib; first compound 0.06325 µM
  relative viability: 0.181
Selumetinib + Tozasertib; first compound 0.2 µM
  relative viability: 0.34
Selumetinib + Tozasertib; first compound 0.6325 µM
  relative viability: 0.283
Selumetinib + Olaparib; first compound 0.02 µM
  relative viability: 0.531
Selumetinib + Olaparib; first compound 0.06325 µM
  relative viability: 0.512
Selumetinib + Olaparib; first compound 0.2 µM
  relative viability: 0.519
Selumetinib + Olaparib; first compound 0.6325 µM
  relative viability: 0.575
Venetoclax + Pictilisib; first compound 0.03162 µM
  relative viability: 0.3
Venetoclax + Pictilisib; first compound 0.1 µM
  relative viability: 0.327
Venetoclax + Pictilisib; first compound 0.3162 µM
  relative viability: 0.403
Venetoclax + Pictilisib; first compound 1 µM
  relative viability: 0.33
Venetoclax + Foretinib; first compound 0.01 µM
  relative viability: 0.678
Venetoclax + Foretinib; first compound 0.03162 µM
  relative viability: 0.849
Venetoclax + Foretinib; first compound 0.1 µM
  relative viability: 0.597
Venetoclax + Foretinib; first compound 0.3162 µM
  relative viability: 0.725
Venetoclax + Foretinib; first compound 1 µM
  relative viability: 0.74

## NCI-H3122
Selumetinib + Tozasertib; first compound 0.02 µM
  relative viability: 0.397
Selumetinib + Tozasertib; first compound 0.06325 µM
  relative viability: 0.351
Selumetinib + Tozasertib; first compound 0.2 µM
  relative viability: 0.305
Selumetinib + Tozasertib; first compound 0.6325 µM
  relative viability: 0.268
Selumetinib + Olaparib; first compound 0.02 µM
  relative viability: 0.609
Selumetinib + Olaparib; first compound 0.06325 µM
  relative viability: 0.571
Selumetinib + Olaparib; first compound 0.2 µM
  relative viability: 0.563
Selumetinib + Olaparib; first compound 0.6325 µM
  relative viability: 0.565
Venetoclax + Pictilisib; first compound 0.01 µM
  relative viability: 0.797
Venetoclax + Pictilisib; first compound 0.03162 µM
  relative viability: 0.619
Venetoclax + Pictilisib; first compound 0.1 µM
  relative viability: 0.576
Venetoclax + Pictilisib; first compound 0.3162 µM
  relative viability: 0.568
Venetoclax + Pictilisib; first compound 1 µM
  relative viability: 0.683
Venetoclax + Foretinib; first compound 0.01 µM
  relative viability: 0.954
Venetoclax + Foretinib; first compound 0.03162 µM
  relative viability: 0.996
Venetoclax + Foretinib; first compound 0.1 µM
  relative viability: 0.924
Venetoclax + Foretinib; first compound 0.3162 µM
  relative viability: 0.942
Venetoclax + Foretinib; first compound 1 µM
  relative viability: 0.96

## NCI-H2085
Selumetinib + Tozasertib; first compound 0.02 µM
  relative viability: 0.737
Selumetinib + Tozasertib; first compound 0.06325 µM
  relative viability: 0.592
Selumetinib + Tozasertib; first compound 0.2 µM
  relative viability: 0.552
Selumetinib + Tozasertib; first compound 0.6325 µM
  relative viability: 0.593
Selumetinib + Olaparib; first compound 0.02 µM
  relative viability: 0.704
Selumetinib + Olaparib; first compound 0.06325 µM
  relative viability: 0.771
Selumetinib + Olaparib; first compound 0.2 µM
  relative viability: 0.689
Selumetinib + Olaparib; first compound 0.6325 µM
  relative viability: 0.671
Venetoclax + Pictilisib; first compound 0.01 µM
  relative viability: 0.458
Venetoclax + Pictilisib; first compound 0.03162 µM
  relative viability: 0.48
Venetoclax + Pictilisib; first compound 0.1 µM
  relative viability: 0.417
Venetoclax + Pictilisib; first compound 0.3162 µM
  relative viability: 0.507
Venetoclax + Pictilisib; first compound 1 µM
  relative viability: 0.502
Venetoclax + Foretinib; first compound 0.01 µM
  relative viability: 1.01
Venetoclax + Foretinib; first compound 0.03162 µM
  relative viability: 1.03
Venetoclax + Foretinib; first compound 0.1 µM
  relative viability: 0.905
Venetoclax + Foretinib; first compound 0.3162 µM
  relative viability: 0.919
Venetoclax + Foretinib; first compound 1 µM
  relative viability: 0.884

## HCC-366
Selumetinib + Tozasertib; first compound 0.02 µM
  relative viability: 0.127
Selumetinib + Tozasertib; first compound 0.06325 µM
  relative viability: 0.109
Selumetinib + Tozasertib; first compound 0.2 µM
  relative viability: 0.104
Selumetinib + Tozasertib; first compound 0.6325 µM
  relative viability: 0.0897
Selumetinib + Olaparib; first compound 0.02 µM
  relative viability: 0.415
Selumetinib + Olaparib; first compound 0.06325 µM
  relative viability: 0.296
Selumetinib + Olaparib; first compound 0.2 µM
  relative viability: 0.198
Selumetinib + Olaparib; first compound 0.6325 µM
  relative viability: 0.19
Venetoclax + Pictilisib; first compound 0.01 µM
  relative viability: 0.193
Venetoclax + Pictilisib; first compound 0.03162 µM
  relative viability: 0.154
Venetoclax + Pictilisib; first compound 0.1 µM
  relative viability: 0.0731
Venetoclax + Pictilisib; first compound 0.3162 µM
  relative viability: 0.184
Venetoclax + Pictilisib; first compound 1 µM
  relative viability: 0.138
Venetoclax + Foretinib; first compound 0.01 µM
  relative viability: 0.86
Venetoclax + Foretinib; first compound 0.03162 µM
  relative viability: 1.04
Venetoclax + Foretinib; first compound 0.1 µM
  relative viability: 0.872
Venetoclax + Foretinib; first compound 0.3162 µM
  relative viability: 0.963
Venetoclax + Foretinib; first compound 1 µM
  relative viability: 0.974
